US5178662A, “Benzaldehyde acetal compounds, preparation process thereof, and herbicidal compositions containing the same as active ingredients” (Mitsui Toatsu Chemicals, Inc., priority 1990, dated 1993)

System: Soybean (Glycine max)
Test: Upland soil application test, crop injury soybean
Type: in vivo
Conditions: soil application one day after seeding, 50 g ai/a, wettable powder, fresh weight on 50th day after spray
Description: (§1) Resin-made 1/1000-are pots were filled with the soil of an upland field. After they were fertilized, cotton and soybean were seeded and 3 cm soil covering was applied. In addition, amaranth, common lambs-quarters, barnyardgrass, green foxtail, large crabgrass and johnsongrass were seeded and 1 cm soil covering was applied. One day later, a wettable powder prepared from a predetermined amount of each test compound in a similar manner to the procedures described in Formulation Example 1 was diluted with water and then sprayed evenly at an application rate equal to 10 l per are onto the surface of the soil by means of a pressure-operated sprayer. The weeds and crops were allowed to grow in a green house and influence to them were observed on the 50th day after the spray. The degree of damages of each test plant and the degree of injury to each crop were determined by measuring fresh weight in each group and indicated by % calculated according to the following formula. [formula]

Compound | Crop injury Soybean (Glycine max) [%]
COc1cc(OC)nc(Oc2c(Cl)cccc2C(OC)OC)n1 [Comp. Comp'd E, reference compound] | 30
COc1cc(OC)nc(Oc2ccccc2C(OC)OC)n1 [Comp. Comp'd C, 2-(4,6-dimethoxypyrimidin-2-yloxy)benzaldehyde dimethylacetal, reference compound] | 50
CCOC(OCC)c1ccccc1Oc1nc(OC)cc(OC)n1 [Comp. Comp'd D, 2-(4,6-dimethoxypyrimidin-2-yloxy)benzaldehyde diethylacetal, reference compound] | 40

System: Crabgrass (Digitaria adscendens)
Test: Upland soil application test, large crabgrass
Type: in vivo
Conditions: 1200 h, soil application one day after seeding, 50 g ai/a, wettable powder, fresh weight on 50th day after spray, read-out: Herbicidal effects Crabgrass (Digitaria adscendens)
Description: as §1

Compound | pest or weed control at 5000 g/ha [%]
COc1cc(OC)nc(Oc2c(Cl)cccc2C(OC)OC)n1 [Comp. Comp'd E, reference compound] | 60
COc1cc(OC)nc(Oc2ccccc2C(OC)OC)n1 [Comp. Comp'd C, 2-(4,6-dimethoxypyrimidin-2-yloxy)benzaldehyde dimethylacetal, reference compound] | 100
CCOC(OCC)c1ccccc1Oc1nc(OC)cc(OC)n1 [Comp. Comp'd D, 2-(4,6-dimethoxypyrimidin-2-yloxy)benzaldehyde diethylacetal, reference compound] | 85

System: Crabgrass (Digitaria adscendens)
Test: Upland foliar application test, large crabgrass
Type: in vivo
Conditions: 960 h, foliar application at stage of 2-3 leaves, 50 g ai/a, emulsion, 40th day after spray, read-out: Herbicidal effects Crabgrass (Digitaria adscendens)
Description: as §1
(§2) Resin-made 1/1000-are pots were filled with the soil of an upland field. After they were fertilized, cotton and soybean were seeded and 3 cm soil covering was applied. Five days later, amaranth, common lambsquarters, barnyardgrass, green foxtail, large crabgrass and johnsongrass were seeded and 1 cm soil covering was applied. They were allowed to grow in a green house. When each plant grew to the stage of 2-3 leaves, an emulsion formulated from a predetermined amount of each test compound in a similar manner to the procedures described in Formulation Example 11 was diluted with water and then sprayed at a predetermined application rate by means of a pressure-operated sprayer. The application rate was controlled at 5 l per are. Influence to the crops and weeds were observed on the 40th day after the spray of the herbicides. The results are shown in Table 4 in which the degree of damages of each test plant and the degree of injury to each crop are shown in a similar manner to Test 2.

Compound | pest or weed control at 5000 g/ha [%]
COc1cc(OC)nc(Oc2c(Cl)cccc2C(OC)OC)n1 [Comp. Comp'd E, reference compound] | 45
COc1cc(OC)nc(Oc2ccccc2C(OC)OC)n1 [Comp. Comp'd C, 2-(4,6-dimethoxypyrimidin-2-yloxy)benzaldehyde dimethylacetal, reference compound] | 90
CCOC(OCC)c1ccccc1Oc1nc(OC)cc(OC)n1 [Comp. Comp'd D, 2-(4,6-dimethoxypyrimidin-2-yloxy)benzaldehyde diethylacetal, reference compound] | 90

System: Cotton (Gossypium indicum)
Test: Upland foliar application test, crop injury cotton
Type: in vivo
Conditions: foliar application at stage of 2-3 leaves, 50 g ai/a, emulsion, 40th day after spray
Description: as §1, §2

Compound | Crop injury Cotton (Gossypium indicum) [%]
COc1cc(OC)nc(Oc2c(Cl)cccc2C(OC)OC)n1 [Comp. Comp'd E, reference compound] | 30
COc1cc(OC)nc(Oc2ccccc2C(OC)OC)n1 [Comp. Comp'd C, 2-(4,6-dimethoxypyrimidin-2-yloxy)benzaldehyde dimethylacetal, reference compound] | 50
CCOC(OCC)c1ccccc1Oc1nc(OC)cc(OC)n1 [Comp. Comp'd D, 2-(4,6-dimethoxypyrimidin-2-yloxy)benzaldehyde diethylacetal, reference compound] | 35

System: Johnsongrass
Test: Upland soil application test, johnsongrass
Type: in vivo
Conditions: Sorghum halepense, 1200 h; soil application one day after seeding, 50 g ai/a, wettable powder, fresh weight on 50th day after spray; read-out: Herbicidal effects Johnsongrass
Description: as §1

Compound | pest or weed control at 5000 g/ha [%]
COc1cc(OC)nc(Oc2c(Cl)cccc2C(OC)OC)n1 [Comp. Comp'd E, reference compound] | 35
COc1cc(OC)nc(Oc2ccccc2C(OC)OC)n1 [Comp. Comp'd C, 2-(4,6-dimethoxypyrimidin-2-yloxy)benzaldehyde dimethylacetal, reference compound] | 100
CCOC(OCC)c1ccccc1Oc1nc(OC)cc(OC)n1 [Comp. Comp'd D, 2-(4,6-dimethoxypyrimidin-2-yloxy)benzaldehyde diethylacetal, reference compound] | 100

System: Amaranth (Amaranthus viridis)
Test: Upland foliar application test, amaranth
Type: in vivo
Conditions: 960 h, foliar application at stage of 2-3 leaves, 50 g ai/a, emulsion, 40th day after spray, read-out: Herbicidal effects Amaranth (Amaranthus viridis)
Description: as §1, §2

Compound | pest or weed control at 5000 g/ha [%]
COc1cc(OC)nc(Oc2c(Cl)cccc2C(OC)OC)n1 [Comp. Comp'd E, reference compound] | 60
COc1cc(OC)nc(Oc2ccccc2C(OC)OC)n1 [Comp. Comp'd C, 2-(4,6-dimethoxypyrimidin-2-yloxy)benzaldehyde dimethylacetal, reference compound] | 100
CCOC(OCC)c1ccccc1Oc1nc(OC)cc(OC)n1 [Comp. Comp'd D, 2-(4,6-dimethoxypyrimidin-2-yloxy)benzaldehyde diethylacetal, reference compound] | 100

System: Foxtail (Setaria viridis)
Test: Upland foliar application test, green foxtail
Type: in vivo
Conditions: 960 h, foliar application at stage of 2-3 leaves, 50 g ai/a, emulsion, 40th day after spray, read-out: Herbicidal effects Foxtail (Setaria viridis)
Description: as §1, §2

Compound | pest or weed control at 5000 g/ha [%]
COc1cc(OC)nc(Oc2c(Cl)cccc2C(OC)OC)n1 [Comp. Comp'd E, reference compound] | 50
COc1cc(OC)nc(Oc2ccccc2C(OC)OC)n1 [Comp. Comp'd C, 2-(4,6-dimethoxypyrimidin-2-yloxy)benzaldehyde dimethylacetal, reference compound] | 95
CCOC(OCC)c1ccccc1Oc1nc(OC)cc(OC)n1 [Comp. Comp'd D, 2-(4,6-dimethoxypyrimidin-2-yloxy)benzaldehyde diethylacetal, reference compound] | 95

System: Johnsongrass
Test: Upland foliar application test, johnsongrass
Type: in vivo
Conditions: Sorghum halepense, 960 h; foliar application at stage of 2-3 leaves, 50 g ai/a, emulsion, 40th day after spray; read-out: Herbicidal effects Johnsongrass
Description: as §2

Compound | pest or weed control at 5000 g/ha [%]
COc1cc(OC)nc(Oc2c(Cl)cccc2C(OC)OC)n1 [Comp. Comp'd E, reference compound] | 30
COc1cc(OC)nc(Oc2ccccc2C(OC)OC)n1 [Comp. Comp'd C, 2-(4,6-dimethoxypyrimidin-2-yloxy)benzaldehyde dimethylacetal, reference compound] | 100
CCOC(OCC)c1ccccc1Oc1nc(OC)cc(OC)n1 [Comp. Comp'd D, 2-(4,6-dimethoxypyrimidin-2-yloxy)benzaldehyde diethylacetal, reference compound] | 100

System: Barnyardgrass (Echinochloa crusgalli)
Test: Upland foliar application test, barnyardgrass
Type: in vivo
Conditions: Echinochloa crus-galli, 960 h; foliar application at stage of 2-3 leaves, 50 g ai/a, emulsion, 40th day after spray; read-out: Herbicidal effects Barnyardgrass (Echinochloa crusgalli)
Description: as §2

Compound | pest or weed control at 5000 g/ha [%]
COc1cc(OC)nc(Oc2c(Cl)cccc2C(OC)OC)n1 [Comp. Comp'd E, reference compound] | 65
COc1cc(OC)nc(Oc2ccccc2C(OC)OC)n1 [Comp. Comp'd C, 2-(4,6-dimethoxypyrimidin-2-yloxy)benzaldehyde dimethylacetal, reference compound] | 100
CCOC(OCC)c1ccccc1Oc1nc(OC)cc(OC)n1 [Comp. Comp'd D, 2-(4,6-dimethoxypyrimidin-2-yloxy)benzaldehyde diethylacetal, reference compound] | 100

System: Foxtail (Setaria viridis)
Test: Upland soil application test, green foxtail
Type: in vivo
Conditions: 1200 h, soil application one day after seeding, 50 g ai/a, wettable powder, fresh weight on 50th day after spray, read-out: Herbicidal effects Foxtail (Setaria viridis)
Description: as §1

Compound | pest or weed control at 5000 g/ha [%]
COc1cc(OC)nc(Oc2c(Cl)cccc2C(OC)OC)n1 [Comp. Comp'd E, reference compound] | 60
COc1cc(OC)nc(Oc2ccccc2C(OC)OC)n1 [Comp. Comp'd C, 2-(4,6-dimethoxypyrimidin-2-yloxy)benzaldehyde dimethylacetal, reference compound] | 100
CCOC(OCC)c1ccccc1Oc1nc(OC)cc(OC)n1 [Comp. Comp'd D, 2-(4,6-dimethoxypyrimidin-2-yloxy)benzaldehyde diethylacetal, reference compound] | 100

System: common lambsquarters
Test: Upland soil application test, common lambsquarters
Type: in vivo
Conditions: Chenopodium album, 1200 h; soil application one day after seeding, 50 g ai/a, wettable powder, fresh weight on 50th day after spray; read-out: Herbicidal effects Common lambquarters
Description: as §1

Compound | pest or weed control at 5000 g/ha [%]
COc1cc(OC)nc(Oc2c(Cl)cccc2C(OC)OC)n1 [Comp. Comp'd E, reference compound] | 50
COc1cc(OC)nc(Oc2ccccc2C(OC)OC)n1 [Comp. Comp'd C, 2-(4,6-dimethoxypyrimidin-2-yloxy)benzaldehyde dimethylacetal, reference compound] | 100
CCOC(OCC)c1ccccc1Oc1nc(OC)cc(OC)n1 [Comp. Comp'd D, 2-(4,6-dimethoxypyrimidin-2-yloxy)benzaldehyde diethylacetal, reference compound] | 100

System: common lambsquarters
Test: Upland foliar application test, common lambsquarters
Type: in vivo
Conditions: Chenopodium album, 960 h; foliar application at stage of 2-3 leaves, 50 g ai/a, emulsion, 40th day after spray; read-out: Herbicidal effects Common lambquarters
Description: as §2

Compound | pest or weed control at 5000 g/ha [%]
COc1cc(OC)nc(Oc2c(Cl)cccc2C(OC)OC)n1 [Comp. Comp'd E, reference compound] | 65
COc1cc(OC)nc(Oc2ccccc2C(OC)OC)n1 [Comp. Comp'd C, 2-(4,6-dimethoxypyrimidin-2-yloxy)benzaldehyde dimethylacetal, reference compound] | 90
CCOC(OCC)c1ccccc1Oc1nc(OC)cc(OC)n1 [Comp. Comp'd D, 2-(4,6-dimethoxypyrimidin-2-yloxy)benzaldehyde diethylacetal, reference compound] | 90

System: Barnyardgrass (Echinochloa crusgalli)
Test: Upland soil application test, barnyardgrass
Type: in vivo
Conditions: Echinochloa crus-galli, 1200 h; soil application one day after seeding, 50 g ai/a, wettable powder, fresh weight on 50th day after spray; read-out: Herbicidal effects Barnyardgrass (Echinochloa crusgalli)
Description: as §1

Compound | pest or weed control at 5000 g/ha [%]
COc1cc(OC)nc(Oc2c(Cl)cccc2C(OC)OC)n1 [Comp. Comp'd E, reference compound] | 55
COc1cc(OC)nc(Oc2ccccc2C(OC)OC)n1 [Comp. Comp'd C, 2-(4,6-dimethoxypyrimidin-2-yloxy)benzaldehyde dimethylacetal, reference compound] | 100
CCOC(OCC)c1ccccc1Oc1nc(OC)cc(OC)n1 [Comp. Comp'd D, 2-(4,6-dimethoxypyrimidin-2-yloxy)benzaldehyde diethylacetal, reference compound] | 100

System: johnsongrass emerging from rhizome
Test: Application test on johnsongrass emerging from rhizome
Type: in vivo
Conditions: foliar application at stage of 4-5 leaves, application rate of active ingredient 20 (unit not given), emulsion, 50th day after spray
Description: as §1
Resin-made 1/1000-are pots were filled with the soil of an upland field. After they were fertilized, rhizome of johnsongrass were transplanted to the pots and 3 cm soil covering was applied. They were allowed to grow in a green house. When each johnsongrass grew to the stage of 4-5 leaves, an emulsion formulated from a predetermined amount of each test compound in a similar manner to the procedures described in Formulation Example 11 was diluted with water and then sprayed at a predetermined application rate by means of a pressure-operated sprayer. The application rate was controlled at 5 l per are. The effect of each compound against the johnsongrass emerging from its rhizome was observed on the 50th day after the spray of the herbicides. The results are shown in Table 5 in which the herbicidal effect against johnsongrass is shown in a similar manner to Test 2.

Compound | Herbicidal effect against johnsongrass emerging from rhizome [%]
COc1cc(OC)nc(Oc2c(Cl)cccc2C(OC)OC)n1 [Comp. Comp'd E, reference compound] | 5
COc1cc(OC)nc(Oc2ccccc2C(OC)OC)n1 [Comp. Comp'd C, 2-(4,6-dimethoxypyrimidin-2-yloxy)benzaldehyde dimethylacetal, reference compound] | 40
CCOC(OCC)c1ccccc1Oc1nc(OC)cc(OC)n1 [Comp. Comp'd D, 2-(4,6-dimethoxypyrimidin-2-yloxy)benzaldehyde diethylacetal, reference compound] | 50

System: Soybean (Glycine max)
Test: Upland foliar application test, crop injury soybean
Type: in vivo
Conditions: foliar application at stage of 2-3 leaves, 50 g ai/a, emulsion, 40th day after spray
Description: as §2

Compound | Crop injury Soybean (Glycine max) [%]
COc1cc(OC)nc(Oc2c(Cl)cccc2C(OC)OC)n1 [Comp. Comp'd E, reference compound] | 30
COc1cc(OC)nc(Oc2ccccc2C(OC)OC)n1 [Comp. Comp'd C, 2-(4,6-dimethoxypyrimidin-2-yloxy)benzaldehyde dimethylacetal, reference compound] | 40
CCOC(OCC)c1ccccc1Oc1nc(OC)cc(OC)n1 [Comp. Comp'd D, 2-(4,6-dimethoxypyrimidin-2-yloxy)benzaldehyde diethylacetal, reference compound] | 35

System: Cotton (Gossypium indicum)
Test: Upland soil application test, crop injury cotton
Type: in vivo
Conditions: soil application one day after seeding, 50 g ai/a, wettable powder, fresh weight on 50th day after spray
Description: as §1

Compound | Crop injury Cotton (Gossypium indicum) [%]
COc1cc(OC)nc(Oc2c(Cl)cccc2C(OC)OC)n1 [Comp. Comp'd E, reference compound] | 30
COc1cc(OC)nc(Oc2ccccc2C(OC)OC)n1 [Comp. Comp'd C, 2-(4,6-dimethoxypyrimidin-2-yloxy)benzaldehyde dimethylacetal, reference compound] | 55
CCOC(OCC)c1ccccc1Oc1nc(OC)cc(OC)n1 [Comp. Comp'd D, 2-(4,6-dimethoxypyrimidin-2-yloxy)benzaldehyde diethylacetal, reference compound] | 45

System: Amaranth (Amaranthus viridis)
Test: Upland soil application test, amaranth
Type: in vivo
Conditions: 1200 h, soil application one day after seeding, 50 g ai/a, wettable powder, fresh weight on 50th day after spray, read-out: Herbicidal effects Amaranth (Amaranthus viridis)
Description: as §1

Compound | pest or weed control at 5000 g/ha [%]
COc1cc(OC)nc(Oc2c(Cl)cccc2C(OC)OC)n1 [Comp. Comp'd E, reference compound] | 45
COc1cc(OC)nc(Oc2ccccc2C(OC)OC)n1 [Comp. Comp'd C, 2-(4,6-dimethoxypyrimidin-2-yloxy)benzaldehyde dimethylacetal, reference compound] | 80
CCOC(OCC)c1ccccc1Oc1nc(OC)cc(OC)n1 [Comp. Comp'd D, 2-(4,6-dimethoxypyrimidin-2-yloxy)benzaldehyde diethylacetal, reference compound] | 100
